Source: ChEMBL document CHEMBL1201862, “PubChem BioAssay data set” (2004)
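Results reflect a 48-hour exposure of cells in 96-well plates to compound at five concentrations. At the GI50, growth is halved.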 Calls of active or inactive are those of the source. No stated cut-off is given here; in the data, active = GI50 up to about 1.1 µM and inactive = higher.

Experiments:
Test in all cases: NCI anticancer screen, dose series, 48 h
DLD-1 = tested on: DLD-1
DMS-114 = tested on: DMS-114
DMS-273 = tested on: DMS-273
HOP-18 = tested on: HOP-18
KM-20L2 = tested on: KM-20L2
M19-MEL = tested on: M19-MEL
RXF 631 = tested on: RXF 631
SNB-78 = tested on: SNB-78
XF498 = tested on: XF498

Compound | GI50 (DLD-1) | GI50 (DMS-114) | GI50 (DMS-273) | GI50 (HOP-18) | GI50 (KM-20L2) | GI50 (M19-MEL) | GI50 (RXF 631) | GI50 (SNB-78) | GI50 (XF498)
C[N+]1(C)C/C(=C\c2ccccc2)C(=O)/C(=C/c2ccccc2)C1 | > 100 µM (inactive) | 39.5 µM (inactive) | 37.5 µM (inactive) | > 100 µM (inactive) | > 100 µM (inactive) | 32.7 µM (inactive) | > 100 µM (inactive) | > 100 µM (inactive) | > 100 µM (inactive)
O=C1c2ccccc2C2(Br)C(=O)c3ccccc3C12 (configuration not stated) | > 100 µM (inactive) | > 100 µM (inactive) | 19.6 µM (inactive) | > 100 µM (inactive) | > 100 µM (inactive) | > 100 µM (inactive) | 10.4 µM (inactive) | – | –
O=c1oc2ccccc2c(O)c1C(C/C(CCN1CCCC1)=N/O)c1ccccc1 (configuration not stated) | > 100 µM (inactive) | > 100 µM (inactive) | – | – | > 100 µM (inactive) | > 100 µM (inactive) | > 100 µM (inactive) | – | > 100 µM (inactive)
c1ccc(C2CC(c3ccc4ccccc4c3)=Nc3ccccc3S2)cc1 (configuration not stated) | > 10 µM (inactive) | – | 21.3 µM (inactive) | 19.4 µM (inactive) | 18.3 µM (inactive) | 18.7 µM (inactive) | 24.3 µM (inactive) | 18.6 µM (inactive) | 17.4 µM (inactive)
CCOC(=O)C1=C(C)N(Cc2ccccc2)C(C)=C(C(=O)OCC)C1c1ccccc1O | 27.9 µM (inactive) | 17.9 µM (inactive) | 32.7 µM (inactive) | 44.2 µM (inactive) | 41 µM (inactive) | 27.4 µM (inactive) | 22.5 µM (inactive) | – | 21.5 µM (inactive)
CCOC(=O)/C(=C\c1ccccc1)C(=O)CCN1CCOCC1 | 2.43 µM (inactive) | 4.92 µM (inactive) | 10.4 µM (inactive) | 13.9 µM (inactive) | 9.89 µM (inactive) | 3.62 µM (inactive) | 11.3 µM (inactive) | 11.6 µM (inactive) | –
Cc1nn(C(=O)CC(=O)Nc2ccccc2Cl)c(C)c1/N=N/c1ccccc1Cl | > 100 µM (inactive) | > 100 µM (inactive) | > 100 µM (inactive) | > 100 µM (inactive) | > 100 µM (inactive) | > 100 µM (inactive) | > 100 µM (inactive) | 40.9 µM (inactive) | > 100 µM (inactive)
CCCS(=O)(=O)/C(=C(\c1ccc(Br)cc1)S(=O)(=O)CCC)c1ccc(Br)cc1 | > 10 µM (inactive) | – | > 10 µM (inactive) | > 10 µM (inactive) | > 10 µM (inactive) | > 10 µM (inactive) | – | > 10 µM (inactive) | > 10 µM (inactive)
CC(=O)O/C(C)=C\C(=O)O/N=C(\N)c1ccc(C)cc1 | 18.9 µM (inactive) | 18.8 µM (inactive) | 28.4 µM (inactive) | 26.2 µM (inactive) | 33.7 µM (inactive) | – | 22.5 µM (inactive) | 21.1 µM (inactive) | 23.9 µM (inactive)
CN(CCN(C)C(=O)CCn1ccc(=O)[nH]c1=O)C(=O)CCn1ccc(=O)[nH]c1=O | – | > 100 µM (inactive) | > 100 µM (inactive) | – | > 100 µM (inactive) | > 100 µM (inactive) | – | > 100 µM (inactive) | > 100 µM (inactive)
O=C1CC(C[C@H](O)C2CCCCC2O)CC(=O)N1Cc1ccccc1 (some centres not stated) | > 100 µM (inactive) | – | > 100 µM (inactive) | > 100 µM (inactive) | > 100 µM (inactive) | > 100 µM (inactive) | > 100 µM (inactive) | > 100 µM (inactive) | > 100 µM (inactive)
CCCC(=O)c1ccc(=O)n(C)c1 | > 100 µM (inactive) | > 100 µM (inactive) | > 100 µM (inactive) | – | > 100 µM (inactive) | > 100 µM (inactive) | 88.3 µM (inactive) | – | > 100 µM (inactive)
CCN(CC)CCNc1ccc2ncn3c4ccc(OC)cc4c(=O)c1c23 | 1.08 µM (active) | 11.5 µM (inactive) | 1.67 µM (inactive) | 17 µM (inactive) | 0.964 µM (active) | 3.73 µM (inactive) | 1.61 µM (inactive) | 14 µM (inactive) | 5.02 µM (inactive)
COc1cc(C2c3cc4c(cc3[C@@H](Nc3ccc5c(c3)OCCO5)C3COC(=O)[C@H]23)OCO4)cc(OC)c1O (some centres not stated) | 0.692 µM (active) | 0.303 µM (active) | 0.109 µM (active) | 3.98 µM (inactive) | 0.745 µM (active) | 0.622 µM (active) | 0.273 µM (active) | 1.84 µM (inactive) | 0.525 µM (active)
CC(=O)CC[N+](C)(C)C | 10.1 µM (inactive) | – | 21 µM (inactive) | 13.9 µM (inactive) | 25.7 µM (inactive) | 23.3 µM (inactive) | 28.8 µM (inactive) | 12.5 µM (inactive) | –
O=C(O)c1oc2ccc([N+](=O)[O-])c3c2c1CCC3 | > 100 µM (inactive) | > 100 µM (inactive) | > 100 µM (inactive) | > 100 µM (inactive) | > 100 µM (inactive) | > 100 µM (inactive) | – | > 100 µM (inactive) | 24.4 µM (inactive)
O=C(CC(=O)N1N=C(N2c3ccccc3Sc3ccccc32)CC1c1ccccc1)Nc1ccc(Cl)cc1 (configuration not stated) | > 100 µM (inactive) | > 100 µM (inactive) | > 100 µM (inactive) | > 100 µM (inactive) | > 100 µM (inactive) | > 100 µM (inactive) | – | > 100 µM (inactive) | > 100 µM (inactive)
c1ccc2c(c1)oc1ccc3nsnc3c12 | > 100 µM (inactive) | > 100 µM (inactive) | > 100 µM (inactive) | > 100 µM (inactive) | > 100 µM (inactive) | > 100 µM (inactive) | 46.9 µM (inactive) | – | –
COc1cc(C(=O)C/C(CCC(=O)Nc2ccccc2[N+](=O)[O-])=N\NC(=O)CC#N)ccc1O | > 100 µM (inactive) | – | > 100 µM (inactive) | > 100 µM (inactive) | > 100 µM (inactive) | > 100 µM (inactive) | > 100 µM (inactive) | – | > 100 µM (inactive)
COC(=O)C1(C(C)C)CCc2c(OC)ccc(OC)c2C1=O (configuration not stated) | > 100 µM (inactive) | > 100 µM (inactive) | – | > 100 µM (inactive) | > 100 µM (inactive) | > 100 µM (inactive) | – | > 100 µM (inactive) | > 100 µM (inactive)
O=C1OC2CCCC[C@@H]2C2C[C@]34CCCCC3[C@@H](C(=O)O4)C12 (some centres not stated) | > 100 µM (inactive) | > 100 µM (inactive) | – | > 100 µM (inactive) | > 100 µM (inactive) | > 100 µM (inactive) | – | > 100 µM (inactive) | > 100 µM (inactive)
O=C(c1ccc(Cl)cc1)N(C(=S)N1CCN(c2ccccc2)CC1)c1ccccc1 | > 100 µM (inactive) | – | > 100 µM (inactive) | > 100 µM (inactive) | > 100 µM (inactive) | > 100 µM (inactive) | – | > 100 µM (inactive) | –
COc1cc(Br)c(/C=N\c2cccc3cc(OC)c(OC)cc23)cc1OC | 43.4 µM (inactive) | 17.2 µM (inactive) | 43.4 µM (inactive) | > 100 µM (inactive) | 55.6 µM (inactive) | 41.6 µM (inactive) | 50.5 µM (inactive) | 55.8 µM (inactive) | –
O=C(Nc1nc2ncn(CC(COc3ccccc3)OC(=O)c3ccccc3)c2c(=O)[nH]1)c1ccccc1 (configuration not stated) | – | > 100 µM (inactive) | > 100 µM (inactive) | – | > 100 µM (inactive) | > 100 µM (inactive) | > 100 µM (inactive) | – | > 100 µM (inactive)
CSc1ccc2c(cc1=O)C(NC(=O)c1cc(O)c(OC(=O)O)c(O)c1)CCc1cc(O)c(O)c(O)c1-2 (configuration not stated) | 18.5 µM (inactive) | 15.2 µM (inactive) | 17 µM (inactive) | > 89.9 µM (inactive) | 24.9 µM (inactive) | 13.6 µM (inactive) | – | 33.3 µM (inactive) | –
